Patent publication US10538555B2, “Macrocyclic inhibitors of the PD-1/PD-L1 and CD80(B7-1)/PD-L1 protein/protein interactions” (BRISTOL-MYERS SQUIBB COMPANY, priority 2014, dated 2020)
Where two headings read alike, the source gives them in different places. Where a SMILES comes first, the peptide text is derived from it. Bridges are numbered along the chain shown (N, C = ends). [ ]: non-standard residue; d: D form. ξ: configuration not given here. Trp(1-CH2COOH) = N[C@@H](Cc1cn(CC(=O)O)c2ccccc12)C(=O)O; NMePhe(4-Me) = CN[C@@H](Cc1ccc(C)cc1)C(=O)O; Phe(4-F) = N[C@@H](Cc1ccc(F)cc1)C(=O)O; Bta = N[C@@H](Cc1csc2ccccc12)C(=O)O; Hyp = O=C(O)[C@@H]1C[C@@H](O)CN1; NMeF = CN[C@@H](Cc1ccccc1)C(=O)O; Cha = N[C@@H](CC1CCCCC1)C(=O)O; NMeNle = CCCC[C@H](NC)C(=O)O; dNle = CCCC[C@@H](N)C(=O)O; dPip = O=C(O)[C@H]1CCCCN1; NMeA = CN[C@@H](C)C(=O)O; Dab = NCC[C@H](N)C(=O)O; Dap = NC[C@H](N)C(=O)O; ξP = O=C(O)C1CCCN1; ξC = NC(CS)C(=O)O; Sar = CNCC(=O)O

Target: T1, Human PD-L1/PD-1 (Homo sapiens, UniProt Q9NZQ7)
T1 construct: TVMV protease cleavage site (C); made in house; host or cells: HEK293T cells
T1 sequence (Q9NZQ7 with tags, fused parts or gaps): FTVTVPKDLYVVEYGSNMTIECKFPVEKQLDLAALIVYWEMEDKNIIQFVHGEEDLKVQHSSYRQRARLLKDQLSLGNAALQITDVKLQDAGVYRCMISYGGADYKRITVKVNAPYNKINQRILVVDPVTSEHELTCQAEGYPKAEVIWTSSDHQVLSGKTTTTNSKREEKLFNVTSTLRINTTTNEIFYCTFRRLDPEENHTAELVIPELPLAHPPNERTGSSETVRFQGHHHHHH
Test: HTRF Human PD-L1/PD-1 binding assay (PD-1-Ig/PD-L1-His)
Details: PD-L1-His 10 nM, PD-1-Ig 20 nM
Text: Methods for Testing the Ability of Macrocyclic Peptides to Compete for the Binding of PD-1 to PD-L1 Using Homogenous Time-Resolved Fluorescence (HTRF) Binding Assays
The ability of the macrocyclic peptides of the present disclosure to bind to PD-L1 was investigated using a PD-1/PD-L1 Homogenous Time-Resolved Fluorescence (HTRF) binding assay.
Homogenous Time-Resolved Fluorescence (HTRF) Assays of Binding of Soluble PD-1 to Soluble PD-L1. Soluble PD-1 and soluble PD-L1 refers to proteins with carboxyl-end truncations that remove the transmembrane-spanning regions and are fused to heterologous sequences, specifically the Fc portion of the human immunoglobuling G sequence (Ig) or the hexahistidine epitope tag (His). All binding studies were performed in an HTRF assay buffer consisting of dPBS supplemented with 0.1% (w/v) bovine serum albumin and 0.05% (v/v) Tween-20. For the PD-1-Ig/PD-L1-His binding assay, inhibitors were pre-incubated with PD-L1-His (10 nM final) for 15 m in 4 μl of assay buffer, followed by addition of PD-1-Ig (20 nM final) in 1 μl of assay buffer and further incubation for 15 m. PD-L1 fusion proteins from either human, cynomolgus macaques, or mouse were used. HTRF detection was achieved using europium crypate-labeled anti-Ig monoclonal antibody (1 nM final) and allophycocyanin (APC) labeled anti-His monoclonal antibody (20 nM final). Antibodies were diluted in HTRF detection buffer and 5 μl was dispensed on top of binding reaction. The reaction was allowed to equilibrate for 30 minutes and signal (665 nm/620 nm ratio) was obtained using an EnVision fluorometer. Additional binding assays were established between PD-1-Ig/PD-L2-His (20 and 5 nM, respectively), CD80-His/PD-L1-Ig (100 and 10 nM, respectively) and CD80-His/CTLA4-Ig (10 and 5 nM, respectively). Competition studies between biotinylated Compound No. 71 and human PD-L1-His were performed as follows. Macrocyclic peptide inhibitors were pre-incubated with PD-L1-His (10 nM final) for 60 minutes in 4 μl of assay buffer followed by addition of biotinylated Compound No. 71 (0.5 nM final) in 1 μl of assay buffer. Binding was allowed to equilibrate for 30 minutes followed by addition of europium crypated labeled Streptavidin (2.5 pM final) and APC-labeled anti-His (20 nM final) in 5 μl of HTRF buffer. The reaction was allowed to equilibrate for 30 m and signal (665 nm/620 nm ratio) was obtained using an EnVision fluorometer.
Recombinant Proteins. Carboxyl-truncated human PD-1 (amino acids 25-167) with a C-terminal human Ig epitope tag [hPD-1 (25-167)-3S-IG] and human PD-L1 (amino acids 18-239) with a C-terminal His epitope tag [hPD-L1([…])-tobacco vein mottling virus protease cleavage site (TVMV)-His] were expressed in HEK293T cells and purified sequentially by rProteinA affinity chromatography and size exclusion chromatography.

[1] = read-out: HTRF Human PD-L1/PD-1 Binding Assay IC50
[2] = class symbol, read-out: HTRF Human PD-L1/PD-1 Binding Assay IC50 Range

| Structure (SMILES) | IC50 [1] | IC50 [2] |
| --- | --- | --- |
| CC(C)C[C@@H]1NC(=O)[C@H](Cc2c[nH]cn2)NC(=O)[C@@H]2CCCN2C(=O)[C@H](CC(N)=O)NC(=O)[C@H](C)N(C)C(=O)[C@H](Cc2ccc(O)cc2)NC(=O)CSC[C@@H](C(=O)NCC(N)=O)NC(=O)[C@H](C)NC(=O)[C@H](CC(=O)O)N(C)C(=O)[C@H](CCCCN)N(C)C(=O)[C@H](Cc2c[nH]c3ccccc23)NC(=O)[C@H](CO)NC(=O)[C@H](Cc2c[nH]c3ccccc23)NC(=O)[C@@H]2C[C@@H](O)CN2C1=O [Example 1534] | 1000 nM | – |
| CCCC[C@H]1C(=O)N[C@@H](Cc2ccc(O)cc2)C(=O)N2CCCC[C@@H]2C(=O)N[C@@H](Cc2c[nH]c3ccccc23)C(=O)N[C@@H](Cc2ccc(O)cc2)C(=O)N[C@@H](CC(C)C)C(=O)N[C@H](C(=O)NCC(N)=O)CSCC(=O)N[C@@H](Cc2ccc(F)cc2)C(=O)N(C)[C@@H](Cc2ccccc2)C(=O)N(C)[C@@H](CCCC)C(=O)N2CCC[C@@H]2C(=O)N[C@@H](CC(=O)O)C(=O)N[C@@H](C(C)C)C(=O)N1C [Example 9214] ({CH2CO}-[Phe(4-F)][NMeF][NMeNle][dP]DV[NMeNle]Y[dPip]WYLCG-NH2; thioether N-13) | – | 100 to 990 nM |
| CCCC[C@H]1C(=O)N(C)[C@@H](CCCC)C(=O)N[C@@H](CC(C)C)C(=O)N[C@H](C(=O)NCC(N)=O)CSCC(=O)N[C@@H](Cc2ccc(O)cc2)C(=O)N(C)[C@@H](C)C(=O)N[C@@H](CC(=O)O)C(=O)N2CCC[C@H]2C(=O)N[C@@H](CN)C(=O)N[C@@H](CCC(=O)O)C(=O)N2C[C@H](O)C[C@H]2C(=O)N[C@@H](Cc2c[nH]c3ccccc23)C(=O)N[C@@H](CCN)C(=O)N[C@@H](Cc2cn(CC(=O)O)c3ccccc23)C(=O)N1C [Example 5180] ({CH2CO}-Y[NMeA]DP[Dap]E[Hyp]W[Dab][Trp(1-CH2COOH)][NMeNle][NMeNle]LCG-NH2; thioether N-14) | – | 1 to 9.9 nM |
| CCCC[C@H]1C(=O)N2CCC[C@@H]2C(=O)N[C@@H](CC(=O)O)C(=O)N[C@@H](C(C)C)C(=O)N(C)[C@@H](Cc2ccc(C)cc2)C(=O)N[C@@H](CC(=O)O)C(=O)N2CCC[C@@H]2C(=O)N[C@@H](Cc2c[nH]c3ccccc23)C(=O)N[C@@H](Cc2ccc(O)cc2)C(=O)N[C@@H](CC(C)C)C(=O)N[C@H](C(=O)NCC(N)=O)CSCC(=O)N[C@@H](Cc2ccc(F)cc2)C(=O)N(C)[C@@H](Cc2ccccc2)C(=O)N1C [Example 10114] ({CH2CO}-[Phe(4-F)][NMeF][NMeNle][dP]DV[NMePhe(4-Me)]D[dP]WYLCG-NH2; thioether N-13) | – | 100 to 990 nM |
| CCCC[C@H]1C(=O)N(C)[C@@H](CCCC)C(=O)N[C@@H](CCC(=O)O)C(=O)N[C@H](C(=O)NCC(N)=O)CSCC(=O)N[C@@H](Cc2ccc(OC)cc2)C(=O)N(C)[C@@H](C)C(=O)N[C@@H](CC(N)=O)C(=O)N2CCC[C@H]2C(=O)N[C@@H](CN)C(=O)N[C@@H](CCCCN)C(=O)N2C[C@H](O)C[C@H]2C(=O)N[C@@H](Cc2c[nH]c3ccccc23)C(=O)N[C@@H](CCN)C(=O)N[C@@H](Cc2cn(CC(=O)O)c3ccccc23)C(=O)N1C [Example 7146] ({CH2CO}-Y(Me)[NMeA]NP[Dap]K[Hyp]W[Dab][Trp(1-CH2COOH)][NMeNle][NMeNle]ECG-NH2; thioether N-14) | – | 10 to 99.9 nM |
| CCCC[C@H]1NC(=O)[C@H](Cc2csc3ccccc23)NC(=O)[C@H](CO)NC(=O)[C@H](Cc2c[nH]c3ccccc23)NC(=O)[C@@H]2C[C@@H](O)CN2C(=O)[C@H](CC(C)C)NC(=O)[C@H](Cc2cnc[nH]2)NC(=O)[C@@H]2CCCN2C(=O)[C@H](CC(N)=O)NC(=O)[C@H](C)N(C)C(=O)[C@H](Cc2ccc(O)cc2)NC(=O)CSCC(C(=O)NCC(N)=O)NC(=O)[C@H](CCCNC(=N)N)NC(=O)[C@H](CCCC)N(C)C1=O (stereo partly drawn) [Example 10123] ({CH2CO}-Y[NMeA]NPHL[Hyp]WS[Bta][dNle][NMeNle]R[ξC]G-NH2; thioether N-14) | – | 100 to 990 nM |
| CCCC[C@H]1C(=O)N(C)[C@@H](C)C(=O)N[C@@H](CCCNC(=N)N)C(=O)NC(C(=O)NCC(N)=O)CSCC(=O)N[C@@H](Cc2ccc(O)cc2)C(=O)N(C)[C@@H](C)C(=O)N[C@@H](CC(N)=O)C(=O)N2CCC[C@H]2C(=O)N[C@@H](Cc2cnc[nH]2)C(=O)N[C@H](CO)C(=O)N2C[C@H](O)C[C@H]2C(=O)N[C@@H](Cc2c[nH]c3ccccc23)C(=O)N[C@@H](CO)C(=O)N[C@@H](Cc2csc3ccccc23)C(=O)N1C (stereo partly drawn) [Example 9120] ({CH2CO}-Y[NMeA]NPH[dS][Hyp]WS[Bta][NMeNle][NMeA]R[ξC]G-NH2; thioether N-14) | – | 10 to 99.9 nM |
| CCCC[C@H]1C(=O)N2CCC[C@@H]2C(=O)N[C@@H](CO)C(=O)N[C@@H](C(C)C)C(=O)N(C)[C@@H](Cc2ccccc2)C(=O)N[C@@H](Cc2ccc(O)cc2)C(=O)N(C)CC(=O)N[C@@H](Cc2csc3ccccc23)C(=O)N[C@@H](Cc2ccc(O)cc2)C(=O)N[C@@H](CC(C)C)C(=O)N[C@H](C(=O)NCC(N)=O)CSCC(=O)N[C@@H](Cc2ccccc2)C(=O)N(C)[C@@H](Cc2ccccc2)C(=O)N1C [Example 10063] ({CH2CO}-F[NMeF][NMeNle][dP]SV[NMeF]Y[Sar][Bta]YLCG-NH2; thioether N-13) | – | 10 to 99.9 nM |
| CCCC[C@H]1C(=O)N(C)[C@@H](CCCC)C(=O)N[C@@H](CCC(=O)O)C(=O)N[C@H](C(=O)NCC(N)=O)CSCC(=O)N[C@@H](Cc2ccc(O)cc2)C(=O)N(C)[C@@H](C)C(=O)N[C@@H](CC(=O)O)C(=O)N2CCCC2C(=O)N[C@@H](CN)C(=O)N[C@@H](CCC(=O)O)C(=O)N2C[C@H](O)C[C@H]2C(=O)N[C@@H](Cc2c[nH]c3ccccc23)C(=O)N[C@@H](CCN)C(=O)N[C@@H](Cc2cn(CC(=O)O)c3ccccc23)C(=O)N1C (stereo partly drawn) [Example 6172] ({CH2CO}-Y[NMeA]D[ξP][Dap]E[Hyp]W[Dab][Trp(1-CH2COOH)][NMeNle][NMeNle]ECG-NH2; thioether N-14) | – | 1 to 9.9 nM |
| CCCC[C@H]1C(=O)N(C)[C@@H](CCCC)C(=O)N[C@@H](CO)C(=O)NC(C(=O)NCC(N)=O)CSCC(=O)N[C@@H](Cc2ccc(O)cc2)C(=O)N(C)[C@@H](C)C(=O)N[C@@H](CC(N)=O)C(=O)N2CCC[C@H]2C(=O)N[C@@H](CC(N)=O)C(=O)N[C@@H](CC(C)C)C(=O)N2CCC[C@H]2C(=O)N[C@@H](Cc2c[nH]c3ccccc23)C(=O)N[C@@H](CO)C(=O)N[C@@H](Cc2c[nH]c3ccccc23)C(=O)N1C (stereo partly drawn) [Example 9140] ({CH2CO}-Y[NMeA]NPNLPWSW[NMeNle][NMeNle]S[ξC]G-NH2; thioether N-14) | – | 1 to 9.9 nM |
| CCCC[C@H]1C(=O)N(C)CC(=O)N[C@@H](CC(=O)O)C(=O)N[C@@H](C(C)C)C(=O)N(C)[C@@H](Cc2ccccc2)C(=O)N[C@@H](Cc2ccc(O)cc2)C(=O)N(C)CC(=O)N[C@@H](Cc2c[nH]c3ccccc23)C(=O)N[C@@H](Cc2ccc(O)cc2)C(=O)N[C@@H](CC(C)C)C(=O)N[C@H](C(=O)NCC(N)=O)CSCC(=O)N[C@@H](CC2CCCCC2)C(=O)N(C)[C@@H](Cc2ccccc2)C(=O)N1C [Example 3238] ({CH2CO}-[Cha][NMeF][NMeNle][Sar]DV[NMeF]Y[Sar]WYLCG-NH2; thioether N-13) | – | 100 to 990 nM |
| CCCC[C@H]1C(=O)N2C[C@H](O)C[C@@H]2C(=O)N[C@@H](CC(=O)O)C(=O)N[C@@H](C(C)C)C(=O)N(C)[C@@H](Cc2ccccc2)C(=O)N[C@@H](CC(N)=O)C(=O)N2C[C@H](O)C[C@@H]2C(=O)N[C@@H](Cc2c[nH]c3ccccc23)C(=O)N[C@@H](Cc2ccc(O)cc2)C(=O)N[C@@H](CCCN)C(=O)N[C@H](C(=O)NCC(N)=O)CSCC(=O)N[C@@H](Cc2ccc(F)c(F)c2)C(=O)N(C)[C@@H](Cc2ccccc2)C(=O)N1C [Example 9304] | 11.7 nM | – |
